In article PMC12267056 (Nature, 2025):
“And” between values parts separate entries of the source, which are not always exact repeats. Equal entries are not always repeated. Where two headings read alike, the source gives them in different places.

What was measured:
Set-up in all cases: made in house; host or cells: Saccharomyces cerevisiae FGY217
[1] = target: T1, human SLC35B1 (wild type) (Homo sapiens, UniProt P78383); test: IC50 for competitive inhibition of [3H]ADP uptake in proteoliposomes; format: biochemical; details: for IC50: wild-type SLC35B1 proteoliposomes
T1 sequence (P78383 1-322): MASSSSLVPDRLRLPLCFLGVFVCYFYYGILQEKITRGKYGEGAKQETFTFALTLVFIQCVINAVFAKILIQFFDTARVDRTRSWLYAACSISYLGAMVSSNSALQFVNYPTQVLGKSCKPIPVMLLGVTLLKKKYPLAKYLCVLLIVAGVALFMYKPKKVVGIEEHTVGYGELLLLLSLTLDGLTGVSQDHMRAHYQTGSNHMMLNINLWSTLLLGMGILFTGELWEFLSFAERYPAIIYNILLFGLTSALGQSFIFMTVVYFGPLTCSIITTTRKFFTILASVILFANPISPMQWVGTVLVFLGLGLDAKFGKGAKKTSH

[2] = target: T1, human SLC35B1 (wild type); test: STD NMR of nucleotide interaction with SLC35B1 proteoliposomes; format: binding; details: for Total STD amplification factor (STD NMR signal): 500 μM substrate
[3] = target: T1, human SLC35B1 (wild type); test: Uptake of [3H]ATP or [3H]ADP into nucleotide-preloaded SLC35B1 proteoliposomes; format: biochemical; details: for Single time point (1 min) uptake of [3H]-ADP by proteoliposomes preloaded with the nucleotide: preload 1 mM of the labelled nucleotide; for radiolabelled nucleotide uptake into proteoliposomes preloaded with the named nucleotide (individual replicates; ATP-loaded about 100): 2 minutes, sheet ED 6G, internal (preloaded) nucleotide as labelled; for [3H]ADP import with nucleotide preloading, relative to ATP preloading: liposomes preloaded with 1 mM nucleotide
[4] = target: T1, human SLC35B1 (wild type); test: Competitive uptake assay: [3H]ADP uptake with 1 mM cold nucleotide; format: biochemical; details: for Normalized SLC35B1-mediated uptake of [3H]ADP in competition with cold nucleotide: 1 mM external cold nucleotide, proteoliposomes preloaded with 1 mM ATP; for [3H]ADP uptake in the presence of cold competitor nucleotide (individual replicates; no-competitor control about 100): competitor 1mM, sheet ED 6F, SLC35B1 proteoliposomes
[5] = target: T1, human SLC35B1 (wild type); format: binding; details: for ΔTm, individual titrations (source data) / ΔTm (average melting temperature increase): 1 mM nucleotide; for ΔTm, individual titrations (source data): wild-type SLC35B1–GFP; for ΔTm (average melting temperature increase): purified wild-type SLC35B1–GFP; for GFP fluorescence after heating (source data Fig 1B): 1 mM substrate
[6] = external cold nucleotide 100 uM

## Nc1ncnc2c1ncn2[C@@H]1O[C@H](COP(=O)(O)OP(=O)(O)NP(=O)(O)O)[C@@H](O)[C@H]1O [AMP–PNP, adenylyl imidodiphosphate]
[1]; external cold nucleotide 0.01 uM, listed as ANP-PNP
  Normalized [3H]-ADP uptake activity (IC50 curve): 99.81 and 108.605 and 100.75 and 104.879 and 96.5643 and 94.0286
[1]; external cold nucleotide 0.1 uM, listed as ANP-PNP
  Normalized [3H]-ADP uptake activity (IC50 curve): 114.525 and 102.005 and 84.315 and 93.8643 and 84.5 and 91.8286
[1]; external cold nucleotide 1 uM, listed as ANP-PNP
  Normalized [3H]-ADP uptake activity (IC50 curve): 100.22 and 103.765 and 80.9 and 74.0571 and 74.9429
[2]
  1H integral (off-resonance spectrum): 2.67E+09
  STD integral: 3.83E+08
  Total STD amplification factor (STD NMR signal): equivalent
[2]; listed as AMP-PNP
  Total STD amplification factor (STD NMR signal): 7.167
[3]
  Single time point (1 min) uptake of [3H]-ADP by proteoliposomes preloaded with the nucleotide: equivalent
[3]; listed as AMP-PNP
  Single time point (1 min) uptake of [3H]-ADP by proteoliposomes preloaded with the nucleotide: 7.11 and 6.164 and 6.553

## O=c1ccn([C@@H]2O[C@H](COP(=O)(O)OP(=O)(O)O)[C@@H](O)[C@H]2O)c(=O)[nH]1 [UDP, uridine diphosphate]
[4]
  Normalized SLC35B1-mediated uptake of [3H]ADP in competition with cold nucleotide: more effective at competition
  [3H]ADP uptake in the presence of cold competitor nucleotide (individual replicates; no-competitor control about 100): 0.8481 and 1.885 and 1.122 and 21.524 and 20.444 and 14.96

## Nc1ncnc2c1ncn2[C@@H]1O[C@H](COP(=O)(O)OP(=O)(O)OP(=O)(O)O)[C@@H](O)[C@H]1O [[^3H]ATP]
[3]; Unloaded (preloaded with buffer)
  One-minute uptake of [3H]ATP by SLC35B1 proteoliposomes: 0.4851

## O=c1ccn([C@@H]2O[C@H](COP(=O)(O)OP(=O)(O)OP(=O)(O)O)[C@@H](O)[C@H]2O)c(=O)[nH]1 [UTP, uridine triphosphate]
[1]
  IC50: 29 µM and 29.1 µM

## Nc1ccn([C@@H]2O[C@H](COP(=O)(O)OP(=O)(O)OP(=O)(O)O)[C@@H](O)[C@H]2O)c(=O)n1 [CTP, cytidine triphosphate]
[4]
  Normalized SLC35B1-mediated uptake of [3H]ADP in competition with cold nucleotide: strong competition
  [3H]ADP uptake in the presence of cold competitor nucleotide (individual replicates; no-competitor control about 100): 12.014 and 11.0419 and 12.1535 and 17.168 and 20.672 and 19.484
[1]; external cold nucleotide 0.1 uM
  Normalized [3H]-ADP uptake activity (IC50 curve): 103.844 and 97.7104 and 98.4453
[1]; external cold nucleotide 1 uM
  Normalized [3H]-ADP uptake activity (IC50 curve): 95.8764 and 97.0509 and 95.3887
[1]; external cold nucleotide 10 uM
  Normalized [3H]-ADP uptake activity (IC50 curve): 67.7481 and 70.5094 and 62.095
[1]; [6]
  Normalized [3H]-ADP uptake activity (IC50 curve): 15.0773 and 20.2633 and 19.2811
[1]
  IC50: 21 µM
[5]
  ΔTm, individual titrations (source data): 2.66 and 3.39 and 2.37
[3]
  radiolabelled nucleotide uptake into proteoliposomes preloaded with the named nucleotide (individual replicates; ATP-loaded about 100): 34.7169 and 32.8215 and 35.0431 and 28.1 and 30.3083 and 22.2
  [3H]ADP import with nucleotide preloading, relative to ATP preloading: approximately 30%

## Nc1ncnc2c1ncn2[C@@H]1O[C@H](COP(=O)(O)O)[C@@H](O)[C@H]1O [AMP, adenosine monophosphate]
[5]
  ΔTm (average melting temperature increase): 1.1 °C
  ΔTm, individual titrations (source data): 1.3 and 1.29 and 0.78
[5]; temperature 4
  GFP fluorescence after heating (source data Fig 1B): 106.601 and 104.432 and 95.3539 and 89.0072 and 98.5673 and 95.7555
[5]; temperature 10
  GFP fluorescence after heating (source data Fig 1B): 120.178 and 88.2039 and 92.06 and 93.2651
[5]; temperature 20
  GFP fluorescence after heating (source data Fig 1B): 106.039 and 98.5673 and 92.7027 and 90.0516 and 90.7747 and 95.3539
[5]; temperature 30
  GFP fluorescence after heating (source data Fig 1B): 90.132 and 77.6476 and 78.8286 and 77.1736 and 79.5837 and 81.6163
[5]; temperature 40
  GFP fluorescence after heating (source data Fig 1B): 21.7011 and 19.6043 and 15.5232 and 15.3143 and 15.5553 and 16.68
[5]; temperature 50
  GFP fluorescence after heating (source data Fig 1B): 5.771 and 5.947 and 3.195 and 3.312 and 3.387 and 3.526

## Nc1ccn([C@@H]2O[C@H](COP(=O)(O)OP(=O)(O)O)[C@@H](O)[C@H]2O)c(=O)n1 [CDP]
[4]
  Normalized SLC35B1-mediated uptake of [3H]ADP in competition with cold nucleotide: more effective at competition
  [3H]ADP uptake in the presence of cold competitor nucleotide (individual replicates; no-competitor control about 100): 1.97 and 2.619 and 2.963 and 13.22 and 12.328 and 14.044

## Nc1nc2c(ncn2[C@@H]2O[C@H](COP(=O)(O)OP(=O)(O)OP(=O)(O)O)[C@@H](O)[C@H]2O)c(=O)[nH]1 [GTP]
[4]
  Normalized SLC35B1-mediated uptake of [3H]ADP in competition with cold nucleotide: only weak competition
  [3H]ADP uptake in the presence of cold competitor nucleotide (individual replicates; no-competitor control about 100): 82.2279 and 86.0047 and 83.9395 and 58.276 and 54.036 and 48.82
[1]; external cold nucleotide 1 uM
  Normalized [3H]-ADP uptake activity (IC50 curve): 88.1 and 101.287 and 103.95
[1]; external cold nucleotide 10 uM
  Normalized [3H]-ADP uptake activity (IC50 curve): 84.475 and 90.925 and 119.487
[1]; [6]
  Normalized [3H]-ADP uptake activity (IC50 curve): 92.075 and 105.213 and 83.1625
[1]; external cold nucleotide 1000 uM
  Normalized [3H]-ADP uptake activity (IC50 curve): 48.75 and 67.325 and 73.7625
[1]; external cold nucleotide 100000 uM
  Normalized [3H]-ADP uptake activity (IC50 curve): 2.4125 and 1.7125 and 1.675
[1]
  IC50: 3500 µM
[2]
  1H integral (off-resonance spectrum): 4.09E+10
  STD integral: 2.66E+09
  Total STD amplification factor (STD NMR signal): low STD NMR signals
[5]
  ΔTm (average melting temperature increase): poor thermostabilization
  ΔTm, individual titrations (source data): 1.35 and 2.4 and 1.45

## O=c1ccn([C@@H]2O[C@H](CO[P@@](=O)(O)O[P@@](=O)(O)OP(=O)(O)O)[C@@H](O)[C@H]2O)c(=O)[nH]1 (stereo in doubt) [UTP, uridine triphosphate]
[4]
  Normalized SLC35B1-mediated uptake of [3H]ADP in competition with cold nucleotide: strong competition
  [3H]ADP uptake in the presence of cold competitor nucleotide (individual replicates; no-competitor control about 100): 11.6037 and 12.7556 and 12.0037 and 16.836 and 18.152 and 16.556
[1]; external cold nucleotide 0.1 uM, 0.1 µM
  Normalized [3H]-ADP uptake activity (IC50 curve): 98.9492 and 98.9864
[1]; external cold nucleotide 0.1 uM, read-out: Normalized [3H]-ADP uptake activity (IC50 curve)
  activity at 0.1 µM: 102%
[1]; external cold nucleotide 1 uM, 1 µM
  Normalized [3H]-ADP uptake activity (IC50 curve): 96.2847 and 99.2915
[1]; external cold nucleotide 1 uM, read-out: Normalized [3H]-ADP uptake activity (IC50 curve)
  activity at 1 µM: 90.8%
[1]; external cold nucleotide 10 uM, 10 µM
  Normalized [3H]-ADP uptake activity (IC50 curve): 69.0203 and 73.0881
[1]; external cold nucleotide 10 uM, read-out: Normalized [3H]-ADP uptake activity (IC50 curve)
  activity at 10 µM: 65%
[1]; external cold nucleotide 100 uM, 100 µM
  Normalized [3H]-ADP uptake activity (IC50 curve): 29.139 and 27.9119
[1]; external cold nucleotide 100 uM, read-out: Normalized [3H]-ADP uptake activity (IC50 curve)
  activity at 100 µM: 28.6%
[3]
  radiolabelled nucleotide uptake into proteoliposomes preloaded with the named nucleotide (individual replicates; ATP-loaded about 100): 26.76 and 31.4277 and 36.8954 and 31.1375 and 33.6917 and 28.9625
  [3H]ADP import with nucleotide preloading, relative to ATP preloading: approximately 30%
